pIC50: −log10 of the molar value.
Target: Integrin alpha-IIb/beta-3 (Homo sapiens, UniProt P08514+P05106)
Assay: ChEBML_215984

Sequence of Integrin alpha-IIb/beta-3 (P05106 27-788 limits assumed): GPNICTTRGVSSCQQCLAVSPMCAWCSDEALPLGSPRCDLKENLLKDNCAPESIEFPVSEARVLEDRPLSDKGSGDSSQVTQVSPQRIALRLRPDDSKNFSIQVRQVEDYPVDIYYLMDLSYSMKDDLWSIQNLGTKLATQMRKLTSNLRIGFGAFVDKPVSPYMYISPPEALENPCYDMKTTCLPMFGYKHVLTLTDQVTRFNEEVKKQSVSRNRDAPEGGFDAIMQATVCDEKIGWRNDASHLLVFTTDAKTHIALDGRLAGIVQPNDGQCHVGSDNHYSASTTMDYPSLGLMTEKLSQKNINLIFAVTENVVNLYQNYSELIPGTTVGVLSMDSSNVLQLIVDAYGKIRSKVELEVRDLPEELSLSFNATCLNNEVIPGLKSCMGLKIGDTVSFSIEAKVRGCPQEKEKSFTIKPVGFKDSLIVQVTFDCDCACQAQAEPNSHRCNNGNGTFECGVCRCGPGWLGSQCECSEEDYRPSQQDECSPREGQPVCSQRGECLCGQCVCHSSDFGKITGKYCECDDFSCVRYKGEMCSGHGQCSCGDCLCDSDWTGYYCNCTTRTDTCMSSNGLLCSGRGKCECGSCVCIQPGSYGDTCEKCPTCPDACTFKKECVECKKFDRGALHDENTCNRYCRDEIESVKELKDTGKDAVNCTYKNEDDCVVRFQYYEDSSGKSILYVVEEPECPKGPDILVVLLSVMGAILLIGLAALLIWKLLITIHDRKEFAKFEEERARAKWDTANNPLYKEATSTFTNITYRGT
Sequence of Integrin alpha-IIb/beta-3 (P08514 32-887 limits assumed): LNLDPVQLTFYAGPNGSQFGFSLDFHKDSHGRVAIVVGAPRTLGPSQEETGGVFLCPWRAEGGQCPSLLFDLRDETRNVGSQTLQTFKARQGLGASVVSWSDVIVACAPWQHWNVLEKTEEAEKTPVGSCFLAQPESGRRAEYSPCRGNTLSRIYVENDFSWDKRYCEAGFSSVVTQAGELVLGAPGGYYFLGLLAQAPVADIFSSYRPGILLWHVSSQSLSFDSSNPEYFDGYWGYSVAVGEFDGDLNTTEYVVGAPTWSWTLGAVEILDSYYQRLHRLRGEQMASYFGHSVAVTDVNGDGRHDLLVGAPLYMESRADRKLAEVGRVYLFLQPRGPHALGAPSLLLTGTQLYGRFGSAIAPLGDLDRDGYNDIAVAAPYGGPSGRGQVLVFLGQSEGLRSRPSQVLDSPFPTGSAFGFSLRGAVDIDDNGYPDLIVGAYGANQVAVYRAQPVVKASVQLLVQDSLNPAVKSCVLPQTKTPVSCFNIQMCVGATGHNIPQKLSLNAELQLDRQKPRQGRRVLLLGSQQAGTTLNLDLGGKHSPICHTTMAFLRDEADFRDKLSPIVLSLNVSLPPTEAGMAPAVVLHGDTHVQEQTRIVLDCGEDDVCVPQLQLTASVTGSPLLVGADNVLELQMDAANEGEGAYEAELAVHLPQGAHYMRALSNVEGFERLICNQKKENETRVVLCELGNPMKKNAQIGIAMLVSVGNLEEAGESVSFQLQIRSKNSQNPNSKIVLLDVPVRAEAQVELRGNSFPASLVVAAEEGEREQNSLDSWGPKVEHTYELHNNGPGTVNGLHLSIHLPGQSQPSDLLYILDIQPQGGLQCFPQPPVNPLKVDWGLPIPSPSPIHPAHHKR
Sequence of Integrin alpha-IIb/beta-3 (P08514 891-1039 limits assumed): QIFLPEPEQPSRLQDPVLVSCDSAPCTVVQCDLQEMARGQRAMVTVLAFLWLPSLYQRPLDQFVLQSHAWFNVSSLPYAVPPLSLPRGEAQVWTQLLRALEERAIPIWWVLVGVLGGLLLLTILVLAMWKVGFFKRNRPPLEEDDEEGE

- pIC50: 7.89
SMILES: CC(C)C1CN(C)C(CCCN=C(N)NC(=O)c2ccc(N=[N][Tc]345(=[P@SP2](c6ccc([S@TB1](=O)(=O)O)cc6)(c6ccccc6S(=O)(=O)O)c6ccccc6[S@TB1](=O)(=O)O)[O]CC[N]3C(CO)(C[O]4)C[O]5)nc2)C(=O)NCC(=O)NC(CC(=O)O)C(=O)NCc2cc(NC(=O)CCCCCN)cc(c2)C(=O)N1 (stereo unspecified) [RP-444]

Source: BindingDB's records for doi:10.1016/S0960-894X(97)00083-8 (1997)
